Earlier results as cited in patent publication US20100331927A1, “FEEDBACK-CONTROLLED METHOD FOR DELIVERING PHOTODYNAMIC THERAPY AND RELATED INSTRUMENTATION” (priority 2007, published 2010).

Tested on: rat bladder tumor model
Settings: 60s/60s light interval/dark interval

C=Cc1c(C)c2cc3nc(cc4[nH]c(cc5nc(cc1[nH]2)C(C)=C5CCC(=O)O)c(CCC(=O)OC)c4C)C1(C)C3=CC=C(C(=O)OC)C1C(=O)OC (stereo not shown) [BPD-MA]
improvement of phototoxicity by light fractionation: 1000 fold
